From publication PMC10321280, “Inhibition of KMO Ameliorates Myocardial Ischemia Injury via Maintaining Mitochondrial Fusion and Fission Balance” (International Journal of Biological Sciences, 2023)

Target: kynurenine 3-monooxygenase (KMO; Recombinant human Kynurenine 3-hydroxylase) (Homo sapiens, UniProt O15229)
Test: SPR (Biacore T200, KMO immobilized on CM5 chip by amine coupling, […] binding model)

kynurenine 3-monooxygenase (KMO; Recombinant human Kynurenine 3-hydroxylase), sequence (O15229 whole entry): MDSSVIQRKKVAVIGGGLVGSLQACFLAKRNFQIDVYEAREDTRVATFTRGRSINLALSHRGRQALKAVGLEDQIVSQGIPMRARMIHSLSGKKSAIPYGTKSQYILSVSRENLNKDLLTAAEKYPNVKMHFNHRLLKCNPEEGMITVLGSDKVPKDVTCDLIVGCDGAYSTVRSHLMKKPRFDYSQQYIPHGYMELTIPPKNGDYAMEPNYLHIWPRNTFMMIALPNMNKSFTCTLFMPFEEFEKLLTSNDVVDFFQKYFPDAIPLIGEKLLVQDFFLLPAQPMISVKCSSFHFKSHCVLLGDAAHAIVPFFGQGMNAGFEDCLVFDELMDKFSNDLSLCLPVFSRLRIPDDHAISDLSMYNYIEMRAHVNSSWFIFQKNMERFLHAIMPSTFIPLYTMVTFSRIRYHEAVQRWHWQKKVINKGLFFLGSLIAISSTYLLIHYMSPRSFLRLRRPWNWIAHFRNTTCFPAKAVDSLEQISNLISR

Kd: 1.96 µM
SMILES: CC(C)=CCC[C@](C)(O[C@@H]1O[C@H](CO[C@@H]2OC[C@@H](O)[C@H](O)[C@H]2O)[C@@H](O)[C@H](O)[C@H]1O)[C@H]1CC[C@]2(C)[C@@H]1[C@H](O)C[C@@H]1[C@@]3(C)CC[C@H](O[C@@H]4O[C@H](CO)[C@@H](O)[C@H](O)[C@H]4O[C@@H]4O[C@H](CO)[C@@H](O)[C@H](O)[C@H]4O)C(C)(C)[C@@H]3CC[C@]12C [Ginsenoside Rb3]
